Assay results reported in patent US10064873B2, “Compounds and compositions for treating HIV with derivatives of Betulin” (GlaxoSmithKline LLC, priority 2011, dated 2018).
pEC50: −log10 of the molar value.

These compounds were tested on HIV NL4-3 wt (assay: MT4 antiviral assay, NL4-3 strain wild type). Conditions: Human immunodeficiency virus 1, NL43; MT4 cells; read-out: EC50 NL4-3 wt.
Assay type: cell-based, HIV-1
Work on `CC(C)C1=C2[C@H]3CC[C@@H]4[C@@]5(C)CC[C@H](OC(=O)CC(C)(C)CC(=O)O)C(C)(C)[C@@H]5CC[C@@]4(C)[C@]3(C)CC[C@@]2([C@H](O)CN(CCN(C)C)Cc2ccc(Cl)cc2)CC1=O` [Example 23, 5-(((3aR,5aR,5bR,7aR,9S,11aR,11bR,13aS)-3a-((S)-2-((4-Chlorobenzyl)(2-(dimethylamino)ethyl)amino)-1-hydroxyethyl)-1-isopropyl-5a,5b,8,8,11a-pentamethyl-2-oxo-3,3a,4,5,5a,5b,6,7,7a,8,9,10,11,11a,11b,12,13,13a-octadecahydro-2H-cyclopenta[a]chrysen-9-yl)oxy)-3,3-dimethyl-5-oxopentanoic acid] yielded a pEC50 of 8.31.
`CC(C)C1=C2[C@H]3CC[C@@H]4[C@@]5(C)CC[C@H](OC(=O)CC(C)(C)C(=O)O)C(C)(C)[C@@H]5CC[C@@]4(C)[C@]3(C)CC[C@@]2([C@H](O)CNCc2ccccc2Cl)CC1=O` [Example 24, 4-(((3aR,5aR,5bR,7aR,9S,11aR,11bR,13aS)-3a-((S)-2-((2-Chlorobenzyl)amino)-1-hydroxyethyl)-1-isopropyl-5a,5b,8,8,11a-pentamethyl-2-oxo-3,3a,4,5,5a,5b,6,7,7a,8,9,10,11,11a,11b,12,13,13a-octadecahydro-2H-cyclopenta[a]chrysen-9-yl)oxy)-2,2-dimethyl-4-oxobutanoic acid] was tested, and the pEC50 was 7.39.
Work on `CC(C)C1=C2[C@H]3CC[C@@H]4[C@@]5(C)CC[C@H](OC(=O)CC(C)(C)C(=O)O)C(C)(C)[C@@H]5CC[C@@]4(C)[C@]3(C)CC[C@@]2([C@@H](O)CNCc2ccccc2Cl)CC1=O` [Example 25, 4-(((3aR,5aR,5bR,7aR,9S,11aR,11bR,13aS)-3a-((R)-2-((2-chlorobenzyl)amino)-1-hydroxyethyl)-1-isopropyl-5a,5b,8,8,11a-pentamethyl-2-oxo-3,3a,4,5,5a,5b,6,7,7a,8,9,10,11,11a,11b,12,13,13a-octadecahydro-2H-cyclopenta[a]chrysen-9-yl)oxy)-2,2-dimethyl-4-oxobutanoic acid] yielded a pEC50 of 7.83.
`CC(=O)O[C@H](CNCc1ccc(F)cc1)[C@@]12CC[C@]3(C)[C@H](CC[C@@H]4[C@@]5(C)CC[C@H](OC(=O)CC(C)(C)C(=O)O)C(C)(C)[C@@H]5CC[C@]43C)C1=C(C(C)C)C(=O)C2` [Example 26, 4-(((3aR,5aR,5bR,7aR,9S,11aR,11bR,13aS)-3a-((S)-1-Acetoxy-2-((4-fluorobenzyl)amino)ethyl)-1-isopropyl-5a,5b,8,8,11a-pentamethyl-2-oxo-3,3a,4,5,5a,5b,6,7,7a,8,9,10,11,11a,11b,12,13,13a-octadecahydro-2H-cyclopenta[a]chrysen-9-yl)oxy)-2,2-dimethyl-4-oxobutanoic acid] gave a pEC50 of 8.31.
For `CC(=O)O[C@@H](CNCc1ccc(F)cc1)[C@@]12CC[C@]3(C)[C@H](CC[C@@H]4[C@@]5(C)CC[C@H](OC(=O)CC(C)(C)C(=O)O)C(C)(C)[C@@H]5CC[C@]43C)C1=C(C(C)C)C(=O)C2` [Example 27, 4-(((3aR,5aR,5bR,7aR,9S,11aR,11bR,13aS)-3a-((R)-1-acetoxy-2-((4-fluorobenzyl)amino)ethyl)-1-isopropyl-5a,5b,8,8,11a-pentamethyl-2-oxo-3,3a,4,5,5a,5b,6,7,7a,8,9,10,11,11a,11b,12,13,13a-octadecahydro-2H-cyclopenta[a]chrysen-9-yl)oxy)-2,2-dimethyl-4-oxobutanoic acid], the pEC50 was 8.09.
`CC(C)C1=C2[C@H]3CC[C@@H]4[C@@]5(C)CC[C@H](OC(=O)CC(C)(C)C(=O)O)C(C)(C)[C@@H]5CC[C@@]4(C)[C@]3(C)CC[C@@]2([C@H](O)CN(C)Cc2ccc(Cl)cc2)CC1=O` [Example 29, 4-(((3aR,5aR,5bR,7aR,9S,11aR,11bR,13aS)-3a-((S)-2-((4-Chlorobenzyl)(methyl)amino)-1-hydroxyethyl)-1-isopropyl-5a,5b,8,8,11a-pentamethyl-2-oxo-3,3a,4,5,5a,5b,6,7,7a,8,9,10,11,11a,11b,12,13,13a-octadecahydro-2H-cyclopenta[a]chrysen-9-yl)oxy)-2,2-dimethyl-4-oxobutanoic acid] gave a pEC50 of 7.76.
`CC(C)C1=C2[C@H]3CC[C@@H]4[C@@]5(C)CC[C@H](OC(=O)CC(C)(C)C(=O)O)C(C)(C)[C@@H]5CC[C@@]4(C)[C@]3(C)CC[C@@]2([C@@H](O)CN(C)Cc2ccc(Cl)cc2)CC1=O` [Example 31, 4-(((3aR,5aR,5bR,7aR,9S,11aR,11bR,13aS)-3a-((R)-2-((4-Chlorobenzyl)(methyl)amino)-1-hydroxyethyl)-1-isopropyl-5a,5b,8,8,11a-pentamethyl-2-oxo-3,3a,4,5,5a,5b,6,7,7a,8,9,10,11,11a,11b,12,13,13a-octadecahydro-2H-cyclopenta[a]chrysen-9-yl)oxy)-2,2-dimethyl-4-oxobutanoic acid] showed a pEC50 of 8.27.
`CC(=O)N(Cc1ccc(Cl)cc1)C[C@@H](O)[C@@]12CC[C@]3(C)[C@H](CC[C@@H]4[C@@]5(C)CC[C@H](OC(=O)CC(C)(C)C(=O)O)C(C)(C)[C@@H]5CC[C@]43C)C1=C(C(C)C)C(=O)C2` [Example 33, 4-(((3aR,5aR,5bR,7aR,9S,11aR,11bR,13aS)-3a-((S)-2-(N-(4-Chlorobenzyl)acetamido)-1-hydroxyethyl)-1-isopropyl-5a,5b,8,8,11a-pentamethyl-2-oxo-3,3a,4,5,5a,5b,6,7,7a,8,9,10,11,11a,11b,12,13,13a-octadecahydro-2H-cyclopenta[a]chrysen-9-yl)oxy)-2,2-dimethyl-4-oxobutanoic acid] showed a pEC50 of 8.28.
`CC(=O)N(Cc1ccc(Cl)cc1)C[C@H](O)[C@@]12CC[C@]3(C)[C@H](CC[C@@H]4[C@@]5(C)CC[C@H](OC(=O)CC(C)(C)C(=O)O)C(C)(C)[C@@H]5CC[C@]43C)C1=C(C(C)C)C(=O)C2` [Example 34, 4-(((3aR,5aR,5bR,7aR,9S,11aR,11bR,13aS)-3a-((R)-2-(N-(4-Chlorobenzyl)acetamido)-1-hydroxyethyl)-1-isopropyl-5a,5b,8,8,11a-pentamethyl-2-oxo-3,3a,4,5,5a,5b,6,7,7a,8,9,10,11,11a,11b,12,13,13a-octadecahydro-2H-cyclopenta[a]chrysen-9-yl)oxy)-2,2-dimethyl-4-oxobutanoic acid] was tested, and the pEC50 was 8.15.
For `CC(=O)N(Cc1ccccc1Cl)C[C@@H](O)[C@@]12CC[C@]3(C)[C@H](CC[C@@H]4[C@@]5(C)CC[C@H](OC(=O)CC(C)(C)C(=O)O)C(C)(C)[C@@H]5CC[C@]43C)C1=C(C(C)C)C(=O)C2` [Example 35, 4-(((3aR,5aR,5bR,7aR,9S,11aR,11bR,13aS)-3a-((S)-2-(N-(2-Chlorobenzyl)acetamido)-1-hydroxyethyl)-1-isopropyl-5a,5b,8,8,11a-pentamethyl-2-oxo-3,3a,4,5,5a,5b,6,7,7a,8,9,10,11,11a,11b,12,13,13a-octadecahydro-2H-cyclopenta[a]chrysen-9-yl)oxy)-2,2-dimethyl-4-oxobutanoic acid], the pEC50 was 8.38.
Compound `CC(=O)O[C@H](CN(CCN(C)C)Cc1ccccc1Cl)[C@@]12CC[C@]3(C)[C@H](CC[C@@H]4[C@@]5(C)CC[C@H](OC(=O)CC(C)(C)C(=O)O)C(C)(C)[C@@H]5CC[C@]43C)C1=C(C(C)C)C(=O)C2` [Example 36, 4-(((3aR,5aR,5bR,7aR,9S,11aR,11bR,13aS)-3a-((S)-1-Acetoxy-2-((2-chlorobenzyl)(2-(dimethylamino)ethyl)amino)ethyl)-1-isopropyl-5a,5b,8,8,11a-pentamethyl-2-oxo-3,3a,4,5,5a,5b,6,7,7a,8,9,10,11,11a,11b,12,13,13a-octadecahydro-2H-cyclopenta[a]chrysen-9-yl)oxy)-2,2-dimethyl-4-oxobutanoic acid] has a pEC50 of 8.40.
